How the values were obtained:
[1] = biological target: human β2-adrenergic receptor (hβAR) (Homo sapiens, UniProt P07550)
Procedure: After 36 hours, cells were harvested and spheroplasts were prepared as described. […] Briefly, the spheroplasts were resuspended in 50 mM Tris-HCl pH 7.4, 5 mM EDTA and were lysed by vortex mixing with glass beads for three one-min periods at 4° C.
FIG. 2 illustrates hβAR ligand binding to membranes from pYβAR2-transformed yeast cells. […] Specific binding was defined as the amount of total binding (circles) minus nonspecific binding measured in the presence of 10 μM (−) alprenolol (squares).

[2] = biological target: T1, Human β-Adrenergic Receptor (Homo sapiens, UniProt P07550); settings: Monkey COS-7 (pBC12: β, BAR); cited from earlier work
T1 construct: expressed in transfected cells; host or cells: monkey COS-7 cells

[3] = system: 8c cells coexpressing hβAR and rat Gsα; assay: Shmoo formation (morphology) of yeast strain 8c (gpa1) coexpressing hβAR and rat Gsα
Procedure: Colonies were transferred to similar plates containing 0.5 mM ascorbic acid and the indicated adrenergic ligand(s). After 16-20 hours at 30° C., the colonies were transferred to similar liquid media at a density of 10^6-10^7 cells/ml and examined by phase contrast microscopy.

[4] = system: pheromone-responsive FUS1 gene promoter; assay: FUS1-lacZ β-galactosidase induction in 8cl (gpal) cells coexpressing hβAR and rat Gsα; assay type: cell-based, yeast
Procedure: To confirm that the pheromone signaling pathway was activated by hβAR and rat Gsα, agonist induction of the pheromone-responsive FUSl gene promoter was measured in a strain of yeast derived from 8c cells (8cl) in which a FUS1-lacZ gene fusion had been stably integrated into the genome.
Strains 8c (FIG. 3, legend) and NNY19 (MATa ura3 leu2 his3 trp1 lys2 FUSl-LacZ::LEU2) were modified by integrative transformation with YIpFUS102 (LEU2), S. Nomoto et al., supra, and designated 8cl and NNY19, respectively. These strains were transformed with pYβAR2 and pYSK136Gαs and maintained on minimal selective plates containing glucose and 50 μM CuSO4. […] See J. Miller, supra.
Agonist stimulation was stereoselective and was blocked by addition of a specific antagonist. Agonist responsiveness was dependent on expression of both hβAR and rat Gsα, and required a strain in which the endogenous G protein α-subunit was disrupted.

CC(C)(C)NC[C@H](O)COc1cccc2[nH]c(C#N)c(I)c12 [125I-CYP, 125I-labeled cyanopindolol]
Kd ([1]; read-out: Kd for 125I-CYP binding, 125I-CYP 5-400 pM, nonspecific binding with 10 μM (−) alprenolol): 0.093 nM

CC(C)(C)NC[C@H](O)COc1cccc2[nH]c(C#N)c([125I])c12 [125I-CYP, 125I-labeled cyanopindolol]
Bmax, maximum ligand bound ([1]; Yeast SC261 (pYβAR2, pMTL9) membranes): 115 pmol/mg
binding of 125I-CYP to membranes ([1]; membranes from pYβAR2-transformed yeast cells): bound in a saturable manner and with high affinity
Bmax, maximum ligand bound [2]: 24 pmol/mg

C=CCc1ccccc1OCC(O)CNC(C)C (stereo not drawn) [alprenolol]
block of isoproterenol-induced shmoo formation ([3]; 100 μM (−) isoproterenol and 50 μM (−) alprenolol): blocked

CC(C)NCC(O)c1ccc(O)c(O)c1 (stereo not drawn) [isoproterenol]
induction of β-galactosidase activity ([4]; 8cl (gpal) cells, 4 hour incubation at 30° C.): dramatic isoproterenol-stimulated induction
final β-galactosidase activity relative to α-factor in nontransformed NNY19 cells ([4]; transformed 8cl cells vs NNY19 cells expressing GPA1): comparable to that induced by α-factor
shmoo formation ([3]; 100 μM isoproterenol, 16-20 hours at 30° C., phase contrast microscopy): induced shmoo formation

(−) epinephrine
Ki [1]: 664 ± 123 nM
